Source: the NIST ThermoML archive (doi:10.1016/j.jct.2012.08.026)
Numbers after ± are expanded uncertainties.

Details: 308.15 K, 101.33 kPa, Liquid; for viscosity: Capillary tube (Ostwald / Ubbelohde) method; for speed of sound: Pulse-echo method; for mass density: Vibrating tube method

SMILES	viscosity	speed of sound	mass density
O=C1CCCN1 [2-pyrrolidinone]	8.922 ± 0.095 mPa·s	1600 ± 3.3 m/s	1097.14 ± 0.85 kg/m3
CCC(O)CO (stereo not given) [1,2-butanediol]	30.29 ± 0.56 mPa·s	1422.6 ± 3.7 m/s	988.25 ± 1.1 kg/m3
CC(O)C(C)O (stereo not given) [2,3-butanediol]	51.38 ± 1.1 mPa·s	1456.6 ± 3.7 m/s	990.72 ± 1.1 kg/m3
CC(O)CCO (stereo not given) [1,3-butanediol]	54.24 ± 1.1 mPa·s	1496 ± 3.2 m/s	991.28 ± 0.75 kg/m3
OCCCCO [1,4-butanediol]	47.38 ± 0.94 mPa·s	1577.8 ± 3.2 m/s	1003.95 ± 0.76 kg/m3
